Data on two molecules can be found in ChEMBL document CHEMBL5034040, “Amide-to-Ester Substitution as a Strategy for Optimizing PROTAC Permeability and Cellular Activity” (J Med Chem, 2021).

A short description of this series: Permeability of the compound in PBS at pH 7.4 after 16 hrs by PAMPA. In kind it is ADME. The settings on record: read-out: Peff.

Regarding `Cc1ncsc1-c1ccc(CNC(=O)[C@@H]2C[C@@H](O)CN2C(=O)[C@@H](NC(=O)COCCOCCOCCNC(=O)C[C@@H]2N=C(c3ccc(Cl)cc3)c3c(sc(C)c3C)-n3c(C)nnc32)C(C)(C)C)cc1`, the Papp at 16 h amounted to 0.01 ×10⁻⁶ cm/s.

In the case of `Cc1ncsc1-c1ccc([C@H](C)NC(=O)[C@@H]2C[C@@H](O)CN2C(=O)[C@@H](NC(=O)COCCCOCCNC(=O)C[C@@H]2N=C(c3ccc(Cl)cc3)c3c(sc(C)c3C)-n3c(C)nnc32)C(C)(C)C)cc1`, the Papp at 16 h turned out to be 0.2 ×10⁻⁶ cm/s.
